Measured values as given in ChEMBL document CHEMBL1201862, “PubChem BioAssay data set” (2004).
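Each compound was tested at five concentrations against cells in 96-well plates for 48 hours. Here, GI50 denotes the concentration required for 50% inhibition of growth.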 Calls of active or inactive are those of the source. Cut-off read from the data, not from the text of the source: active = GI50 up to about 1.1 µM and inactive = higher.

Tests used:
Experiment in all cases: growth of human tumour cells (NCI), 48 h
786-0 = tested on: 786-0
RXF 393 = tested on: RXF 393
CCRF-CEM = tested on: CCRF-CEM
UO-31 = tested on: UO-31
UACC-62 = tested on: UACC-62
SNB-75 = tested on: SNB-75
SK-MEL-28 = tested on: SK-MEL-28
SF-539 = tested on: SF-539
OVCAR-8 = tested on: OVCAR-8
SF-268 = tested on: SF-268
PC-3 = tested on: PC-3
HOP-92 = tested on: HOP-92
OVCAR-5 = tested on: OVCAR-5
A549 = tested on: A549
COLO 205 = tested on: COLO 205
EKVX = tested on: EKVX
U-251 = tested on: U-251
HCT-15 = tested on: HCT-15
RPMI-8226 = tested on: RPMI-8226
HOP-62 = tested on: HOP-62

SMILES	GI50 (786-0)	GI50 (RXF 393)	GI50 (CCRF-CEM)	GI50 (UO-31)	GI50 (UACC-62)	GI50 (SNB-75)	GI50 (SK-MEL-28)	GI50 (SF-539)	GI50 (OVCAR-8)	GI50 (SF-268)	GI50 (PC-3)	GI50 (HOP-92)	GI50 (OVCAR-5)	GI50 (A549)	GI50 (COLO 205)	GI50 (EKVX)	GI50 (U-251)	GI50 (HCT-15) [µM]	GI50 (RPMI-8226)	GI50 (HOP-62)
O=C(CCCN1CCC2(CC1)OC(=O)N(c1ccccc1)C2=O)c1ccccc1	> 100 µM (inactive)	> 100 µM (inactive)	> 100 µM (inactive)	27.8 µM (inactive)	> 100 µM (inactive)	> 100 µM (inactive)	> 100 µM (inactive)	> 100 µM (inactive)	> 100 µM (inactive)	> 100 µM (inactive)	> 100 µM (inactive)	> 100 µM (inactive)	> 100 µM (inactive)	> 100 µM (inactive)	> 100 µM (inactive)	> 100 µM (inactive)	> 100 µM (inactive)	> 100	> 100 µM (inactive)	> 100 µM (inactive)
CC(C)=CC[S+]([O-])c1ccccc1NC1=CC(=O)CC(C)(C)C1 (stereo not drawn)	> 100 µM (inactive)	> 100 µM (inactive)	> 100 µM (inactive)	> 100 µM (inactive)	> 100 µM (inactive)	> 100 µM (inactive)	> 100 µM (inactive)	> 100 µM (inactive)	> 100 µM (inactive)	> 100 µM (inactive)	> 100 µM (inactive)	> 100 µM (inactive)	> 100 µM (inactive)	> 100 µM (inactive)	> 100 µM (inactive)	> 100 µM (inactive)	0.223 µM (active)	8.3	> 100 µM (inactive)	0.124 µM (active)
CCOC(=O)COc1cc(-c2ccccc2F)nc2cc3c(cc12)OCO3	> 100 µM (inactive)	> 100 µM (inactive)	23.2 µM (inactive)		> 100 µM (inactive)	59.4 µM (inactive)	> 100 µM (inactive)	> 100 µM (inactive)	> 100 µM (inactive)	> 100 µM (inactive)	> 100 µM (inactive)	19.7 µM (inactive)	> 100 µM (inactive)	> 100 µM (inactive)	> 100 µM (inactive)	85.5 µM (inactive)	93.5 µM (inactive)	39.9	42 µM (inactive)	> 100 µM (inactive)
CC(=O)OC(C)c1cc2c(s1)C(=O)c1sccc1C2=O (stereo not drawn)	4.45 µM (inactive)	1.56 µM (inactive)	2.76 µM (inactive)	1.55 µM (inactive)		1.29 µM (inactive)	0.916 µM (active)	0.268 µM (active)	1.81 µM (inactive)	0.989 µM (active)	2.19 µM (inactive)	3.51 µM (inactive)	1.73 µM (inactive)	1.17 µM (inactive)	1.89 µM (inactive)	2.03 µM (inactive)	0.944 µM (active)	0.902	0.951 µM (active)	1.03 µM (active)
CC(=O)OCC1(CNc2nc(N)ncc2C#N)CC(CCc2ccccc2)C1 (stereo not drawn)	40.4 µM (inactive)	27.5 µM (inactive)	57 µM (inactive)	10.7 µM (inactive)	46 µM (inactive)	27.4 µM (inactive)	> 100 µM (inactive)	> 100 µM (inactive)	50.2 µM (inactive)	> 100 µM (inactive)	> 100 µM (inactive)	2.45 µM (inactive)	> 100 µM (inactive)	15.5 µM (inactive)	75.3 µM (inactive)	6.01 µM (inactive)	31.3 µM (inactive)	> 100		14.4 µM (inactive)
COc1ccc2c(O)c1-c1c(OC)ccc(c1O)SSc1ccc(OC)c(c1O)-c1c(OC)ccc(c1O)SS2	40.6 µM (inactive)	16.1 µM (inactive)	4.56 µM (inactive)	4.21 µM (inactive)		36.7 µM (inactive)	34.4 µM (inactive)	4.45 µM (inactive)	32.9 µM (inactive)	27.4 µM (inactive)	5.42 µM (inactive)	23 µM (inactive)	66.4 µM (inactive)	24.5 µM (inactive)	19.9 µM (inactive)	7.87 µM (inactive)	19.2 µM (inactive)		1.99 µM (inactive)	> 100 µM (inactive)
COc1cc(Nc2cc(Cl)cc(Cl)c2)nc(N)n1	17.4 µM (inactive)	14.5 µM (inactive)	17.6 µM (inactive)	16.9 µM (inactive)	17.1 µM (inactive)	15.5 µM (inactive)		15.7 µM (inactive)	18.9 µM (inactive)	19.5 µM (inactive)	20.8 µM (inactive)	16.4 µM (inactive)	40 µM (inactive)	19.9 µM (inactive)	23.1 µM (inactive)	6.11 µM (inactive)	15.2 µM (inactive)	17.1	19.9 µM (inactive)	17.5 µM (inactive)
COc1cc(Nc2cnc3cc(F)c(F)cc3n2)cc(OC)c1OC	> 100 µM (inactive)	36.8 µM (inactive)	> 100 µM (inactive)	> 100 µM (inactive)	> 100 µM (inactive)	> 100 µM (inactive)	> 100 µM (inactive)	> 100 µM (inactive)	> 100 µM (inactive)	> 100 µM (inactive)	> 100 µM (inactive)	> 100 µM (inactive)	> 100 µM (inactive)	> 100 µM (inactive)	> 100 µM (inactive)	> 100 µM (inactive)	> 100 µM (inactive)	> 100		91.8 µM (inactive)
NC(Cc1ccc(CP(=O)(O)O)cc1)C(=O)O (stereo not drawn)		> 100 µM (inactive)	> 100 µM (inactive)	> 100 µM (inactive)	> 100 µM (inactive)	> 100 µM (inactive)	> 100 µM (inactive)	> 100 µM (inactive)	> 100 µM (inactive)	> 100 µM (inactive)	> 100 µM (inactive)	> 100 µM (inactive)	> 100 µM (inactive)	> 100 µM (inactive)	> 100 µM (inactive)	> 100 µM (inactive)	> 100 µM (inactive)	> 100	> 100 µM (inactive)	
O=C(OC1C#CCSCC#C/C=C\1)c1ccc2c(c1)C(=O)c1ccccc1C2=O (stereo not drawn)		18.4 µM (inactive)	> 100 µM (inactive)	42.7 µM (inactive)	11.9 µM (inactive)	26.4 µM (inactive)	> 100 µM (inactive)	15.5 µM (inactive)	68.5 µM (inactive)	21.6 µM (inactive)	> 100 µM (inactive)	2.79 µM (inactive)	> 100 µM (inactive)	> 100 µM (inactive)	82.2 µM (inactive)	64.7 µM (inactive)	16.2 µM (inactive)	> 100	> 100 µM (inactive)	16.5 µM (inactive)
COc1ccc2c(c1)c1c(n2CCN2CCOCC2)-c2ccccc2CC1	37.4 µM (inactive)	34 µM (inactive)	27.2 µM (inactive)	> 100 µM (inactive)	> 100 µM (inactive)	39.7 µM (inactive)	42.4 µM (inactive)	23.1 µM (inactive)	34.2 µM (inactive)	42.3 µM (inactive)	26.1 µM (inactive)	46.8 µM (inactive)	71.4 µM (inactive)	30.8 µM (inactive)	17.1 µM (inactive)		29.9 µM (inactive)	29.9	22.5 µM (inactive)	45.4 µM (inactive)
O=C1CCCCc2cccc(O)c21	> 100 µM (inactive)	> 100 µM (inactive)	> 100 µM (inactive)	> 100 µM (inactive)	> 100 µM (inactive)	> 100 µM (inactive)	> 100 µM (inactive)	> 100 µM (inactive)	> 100 µM (inactive)	> 100 µM (inactive)	> 100 µM (inactive)	> 100 µM (inactive)	> 100 µM (inactive)		> 100 µM (inactive)	> 100 µM (inactive)	> 100 µM (inactive)	> 100	> 100 µM (inactive)	> 100 µM (inactive)
Cn1c(=O)n2c(-c3ccccc3)c(-c3ccccc3)n2c1=O	> 100 µM (inactive)	> 100 µM (inactive)	> 100 µM (inactive)	82 µM (inactive)	> 100 µM (inactive)	99.1 µM (inactive)	> 100 µM (inactive)	> 100 µM (inactive)	> 100 µM (inactive)		> 100 µM (inactive)	> 100 µM (inactive)	> 100 µM (inactive)	> 100 µM (inactive)	> 100 µM (inactive)	> 100 µM (inactive)	> 100 µM (inactive)	> 100		> 100 µM (inactive)
CCN(CC)CCCNc1n[n+]([O-])c2ccccc2[n+]1[O-]	8.69 µM (inactive)	13 µM (inactive)	14.2 µM (inactive)	28.6 µM (inactive)	8.43 µM (inactive)	23.1 µM (inactive)	63.1 µM (inactive)	20.7 µM (inactive)	8.51 µM (inactive)	26.4 µM (inactive)	9.73 µM (inactive)	27.1 µM (inactive)	20.5 µM (inactive)	12.6 µM (inactive)	11.2 µM (inactive)		18.5 µM (inactive)	2.5	4.21 µM (inactive)	
COC(=O)Cn1c(=O)oc2nc(-c3ccccc3)cc(C(F)(F)F)c21	> 100 µM (inactive)	> 100 µM (inactive)		> 100 µM (inactive)	> 100 µM (inactive)	> 100 µM (inactive)	24.4 µM (inactive)	> 100 µM (inactive)	18.3 µM (inactive)	> 100 µM (inactive)	> 100 µM (inactive)	27.2 µM (inactive)	> 100 µM (inactive)	82 µM (inactive)	> 100 µM (inactive)	70.6 µM (inactive)	61.2 µM (inactive)	> 100	27.5 µM (inactive)	> 100 µM (inactive)
